We go through six compounds from patent US5741788A, “Heterocyclic compounds and their preparation and use” (Novo Nordisk A/S, priority 1994, dated 1998).

SMILES strings stand for the structures. pIC50, pKd: −log10 of the molar value. Structures can show the parent of a compound that is named as a salt. Where two headings read alike, the source gives them in different places. Some results are limits rather than exact numbers.

The target of experiment [1] is muscarinic acetylcholine receptors. Put plainly: inhibition of specific binding of ^3 H-Oxotremorine-M (^3 H-Oxo) to rat cortex homogenate. More on the design: species or system male Wistar rats. The conditions noted are these: 1.0 nM radioligand, 30 min at 25° C., pH 7.4. An excerpt: The pharmacological properties of the compounds of the invention can be illustrated by determining their capability to inhibit the specific binding of ^3 H-Oxotremorine-M (^3 H-Oxo). Birdsdall N. J. M., Hulme E. C., and Burgen A. S. V. (1980). "The Character of Muscarinic Receptors in Different Regions of the Rat Brain". Proc. Roy. Soc. London (Series B) 207,1.
^3 H-Oxo labels muscarinic receptor in the CNS (with a preference for agonist domains of the receptors). Three different sites are labelled by ^3 H-Oxo. […] Using the present experimental conditions only the high and medium affinity sites are determined.
The inhibitory effects of compounds on ^3 H-Oxo binding reflects the affinity for muscarinic acetylcholine receptors.
All preparations are performed at 0°-4° C. unless otherwise indicated. Fresh cortex (0.1-1 g) from male Wistar rats (150-250 g) is homogenized for 5-10 s in 10 ml 20 mM Hepes pH: 7.4, with an Ultra-Turrax homogenizer. The homogenizer is rinsed with 10 ml of buffer and the combined suspension centrifuged for 15 min. at 40,000×g. The pellet is washed three times with buffer. In each step the pellet is homogenized as before in 2×10 ml of buffer and centrifuged for 10 min. at 40,000×g.
The final pellet is homogenized in 20 mM Hepes pH: 7.4 (100 ml per g of original tissue) and used for binding assay. Aliquots of 0.5 ml is added 25 ul of test solution and 25 ul of ^3 H-Oxotremorine (1.0 nM, final concentration) mixed and incubated for 30 min. at 25° C. Non-specific binding is determined in triplicate using arecoline (1 ug/ml, final concentration) as the test substance. After incubation samples are added 5 ml of ice-cold buffer and poured directly onto Whatman GF/C glass fiber filters under suction and immediately washed 2 times with 5 ml of ice-cold buffer. The amount of radioactivity on the filters are determined by conventional liquid scintillation counting. Specific binding is total binding minus non specific binding.
Test substances are dissolved in 10 ml water (if necessary heated on a steam-bath for less than 5 min.) at a concentration of 2.2 mg/ml. 25-75% inhibition of specific binding must be obtained before calculation of IC50.
The test value will be given as IC50 (the concentration (nM) of the test substance which inhibits the specific binding of ^3 H-Oxo by 50%).
(§1) IC50 =(applied test substance concentration)×(Cx /Co -Cx)nM
(§2) where Co is specific binding in control assays and Cx is the specific binding in the test assay. (The calculations assume normal mass-action kinetics).

Experiment [2] concerns the target T1, M1-site (pirenzepine sensitive site) of muscarinic receptors (Rattus norvegicus, UniProt P08482).
T1 construct: Fresh cortex (0.1-1 g) from male Wistar rats (150-200 g) is homogenized; from tissue; host or cells: cerebral cortex of male Wistar rats
T1 sequence (P08482 1-460): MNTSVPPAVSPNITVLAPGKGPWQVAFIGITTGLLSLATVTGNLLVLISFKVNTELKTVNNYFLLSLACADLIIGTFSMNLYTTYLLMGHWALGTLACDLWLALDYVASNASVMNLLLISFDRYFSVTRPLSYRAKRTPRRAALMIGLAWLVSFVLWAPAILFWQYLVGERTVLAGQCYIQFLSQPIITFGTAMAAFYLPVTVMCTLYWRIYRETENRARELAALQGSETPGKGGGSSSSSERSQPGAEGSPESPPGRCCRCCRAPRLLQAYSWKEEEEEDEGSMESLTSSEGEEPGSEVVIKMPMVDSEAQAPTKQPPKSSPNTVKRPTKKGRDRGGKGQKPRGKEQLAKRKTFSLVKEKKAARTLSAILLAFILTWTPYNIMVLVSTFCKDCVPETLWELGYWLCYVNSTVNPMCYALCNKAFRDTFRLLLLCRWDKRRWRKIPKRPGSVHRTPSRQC
Put plainly: inhibition of ^3 H-PRZ (pirenzepine, [N-methyl-^3 H]) binding to rat cerebral cortex membranes. More on the design: species or system male Wistar rats.
From the text: Furthermore the pharmacological properties of the compounds of the invention can also be illustrated by determining their capability to inhibit ^3 H-PRZ (pirenzepine, [N-methyl-^3 H]) binding to rat cerebral cortex membranes. Pirenzepine binds selectively to subtype of muscarinic receptors. Historically the type is named the M1 -site, whereas pirenzepine sensitive site would be more appropriate. Although selective for M1 -sites pirenzepine also interact with M2 -sites.
All preparations are performed at 0°-4° C. unless otherwise indicated. Fresh cortex (0.1-1 g) from male Wistar rats (150-200 g) is homogenized for 5-10 s. in 10 ml 20 mM Hepes pH: 7.4, with an Ultra-Turraxhomogenizer. The homogenizer is rinzed with 2×10 ml of buffer and the combined suspension centrifuged for 15 min at 40,000×g. The pellet is washed three times with buffer. In each step the pellet is homogenized as before in 3×10 ml of buffer and centrifuged for 10 min at 40,000×g.
The final pellet is homogenized in 20 mM Hepes pH: 7.4 (100 ml per g of original tissue) and used for binding assay. Aliquots of 0.5 ml is added 20 μl of test solution and 25 μl of ^3 H-Pirenzepine (1.0 nM, final conc.), mixed and incubated for 60 min at 20° C. Non-specificbinding is determined in triplicate using atropine (1 μg/ml, final conc.) as the test substance. After incubation samples are added 5 ml of ice-cold buffer and poured directly onto Whatman GF/C glass fiber filters inder suction and immediately washed 2 times with 5 ml of ice-cold buffer. The amount of radioactivity on the filters are determined by conventional liquid scintillation counting. Specific binding is total binding minus non-specific binding.
Test substances are dissolved in 10 ml water, at a concentration of 0.22 mg/ml. 25-75% inhibition of specific binding must be obtained before calculation of IC50.
The test value will be given as IC50 (the concentration (nM) of the test substance which inhibits the specific binding of ^3 H-PRZ by 50%).
as §1, §2

The target in experiment [3] is muscarinic receptor in the CNS. The note with it: read-out: affinity of site labelled by ^3 H-Oxo, cited from earlier work.

In the case of `CN1C2CCC1c1c(sc3nsnc13)C2.O=C(O)C(=O)O` (stereo not shown) [Compound 1, 6,8-Ethano-7-methyl-5,6,7,8-tetrahydro-1,2,5-thiadiazolo[3',4':4,5]thieno[3,2-c]pyridine oxalate], the “^3 H-Oxo-M IC50” value in experiment [1] was found to be 0.27 µg/mL. In experiment [2], this compound gave a pIC50 of less than 6.00.

With `C1Cc2sc3nsnc3c2CN1.O=C(O)C(=O)O` [Compound 2, 5,6,7,8-Tetrahydro-1,2,5-thiadiazolo[3',4':4,5]thieno[3,2-c]pyridine oxalate], the “^3 H-Oxo-M IC50” value in experiment [1] was determined as 0.0064 µg/mL. Further, the negative logarithm of the IC50 (pIC50) in experiment [2] (rat cortex, 1.0 nM ^3 H-Pirenzepine, 60 min at 20° C., pH 7.4, read-out: ^3 H-Pz IC50) is 6.55.

On to `C1CC2CN(C1)Cc1c2sc2nsnc12.O=C(O)C(=O)O` (stereo not shown) [Compound 3, 5,9-Methano-5,6,7,8,9,10-hexahydro-1,2,5-thiadiazolo[3',4':4,5]thieno[3,2-c]azocine oxalate], for which, in experiment [1], the “^3 H-Oxo-M IC50” value is 0.0022 µg/mL. This compound also showed a negative-log IC50 (pIC50) in experiment [2] of 7.59.

`O=C(O)C(=O)O.c1cc2nsnc2c2c1CCNC2` [Compound 4, 6,7,8,9-Tetrahydro[1,2,5]thiadiazolo[3,4-h]isoquinoline oxalate]: the “^3 H-Oxo-M IC50” value in experiment [1] came to 0.014 µg/mL. In addition, the pIC50 in experiment [2] was 6.59.

With `CN1CCC2=C(C1)c1nsnc1SC2` [Compound 5, oxalate], in experiment [1], the “^3 H-Oxo-M IC50” value was found to be 0.014 µg/mL. This compound had a negative-log IC50 (pIC50) in experiment [2] of 7.10.

As to `C[N+](C)(C)CC#CCN1CCCC1=O` [^3 H-Oxo, ^3 H-Oxotremorine-M], the pKd in experiment [3] (first of three sites (high affinity)) is 8.74; in experiment [3] (second of three sites (medium affinity)) it was 7.70; in experiment [3] (third of three sites, not determined under the present experimental conditions), 5.52.

For orientation: pIC50 means the negative decadic logarithm of the IC50, by convention in mol/L.
